Source: US8420640B2, “Methods of treating amyloid disease using analogs of 1-(4-nitrophenyl) piperazine” (Treventis Corporation, priority 2008, dated 2013)

Molecular target: T1, Aβ40 (Homo sapiens, UniProt P05067)
T1 construct: Compounds Showing Activity Observed in a ThT Functional Aβ 1-40 Aggregation Assay
Assay: ThT functional Aβ 1-40 aggregation assay
Format: biochemical
Conditions: for IC50: 20 μM Aβ, 20 mM Tris pH 7.4, 150 mM NaCl, 1% DMSO, 37° C.; for Ratio: potency with respect to the compound of Example 7, 1=potency of that compound
Description: Aβ40 (1.0 mg) was pre-treated in a 1.5 mL microfuge tube with HFIP (1 mL) and sonicated for 20 min to disassemble any pre-formed Aβ aggregates. The HFIP was removed with a stream of argon and the Aβ dissolved in Tris base (5.8 mL, 20 mM, pH ˜10). The pH was adjusted to 7.4 with concentrated HCl (˜10 μL) and the solution filtered using a syringe filter (0.2 μm) before being used.
The kinetic ThT assay for Aβ aggregation is similar to that of Chalifour et al (Chalifour et al, 2003, J. Biol. Chem. 278:34874-81). Briefly, pre-treated Aβ40 (40 μM in 20 mM Tris, pH 7.4), was diluted with an equal volume of 8 μM ThT in Tris (20 mM, pH 7.4, 300 mM NaCl). Aliquots of Aβ/ThT (200 μL) were added to wells of a black polystyrene 96-well plate, followed by 2 μL of a compound in DMSO (variable concentration), or DMSO alone (controls). Incubations were performed in triplicate and were taken to contain 20 μM Aβ, various concentration of compound in 20 mM Tris, pH 7.4, 150 mM NaCl, 1% DMSO. Plates were covered with clear polystyrene lids and incubated at 37° C. in a Tecan Genios microplate reader. Fluorescence readings (λex=450 nm, λem=480 nm) were taken every 15 min., after first shaking at high intensity for 15 s and allowing to settle for 10 s before each reading. Active compounds attenuated the increase in fluorescence over time that occurred in controls. By repeating this procedure over several concentrations, a mean inhibitory concentration (IC50) was measured, as given in the table below. The column “A-syn” represents a similar procedure measuring inhibition of alpha-synuclein aggregation. The column “ratio” is a reproducible assessment of potency with respect to the compound of Example 7, in which 1=potency of that compound: […]

T1 sequence (P05067 672-711 limits assumed): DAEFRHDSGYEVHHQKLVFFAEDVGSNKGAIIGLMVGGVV

| IC50 [µM] | Ratio | SMILES |
| --- | --- | --- |
| 428 | 0.05 | Nc1cccc(N2CCN(C(=O)c3ccccc3)CC2)c1 |
| 90 | 0.1 | O=C(c1ccccc1)N1CCN(c2ccc(NCCO)c(Nc3ccccc3)c2)CC1 |
| 148 | 0.25 | CN(C)c1ccc(N2CCN(C(=O)c3ccccc3)CC2)cc1N(C)c1ccccc1 |
| 39 | 0.15 | CN(C)c1ccc([N+](=O)[O-])c(Nc2ccccc2)c1 |
| 107 | 0.35 | Nc1ccc(N2CCN(C(=O)c3ccccc3)CC2)cc1N(Cc1ccccc1)c1ccccc1 |
|  | 0.21 | CC(=O)Nc1ccc(N2CCN(C(=O)c3ccccc3)CC2)cc1Nc1ccccc1 |
| 975 | 0.03 | O=C(NCc1ccccc1)C1CCN(c2ccc([N+](=O)[O-])c(NCc3ccccc3)c2)CC1 |
| 42 | 0.11 | O=C(NCc1ccccc1)c1ccc(-c2ccc([N+](=O)[O-])c(NCc3ccccc3)c2)cc1 |
| 4.03 |  | CC(=O)N1CCN(c2ccc([N+](=O)[O-])c(N3CCc4ccccc4C3)c2)CC1 |
| > 50 |  | O=C(c1ccccc1)N1CCN(c2ccc([N+](=O)[O-])c(Oc3ccccc3)c2)CC1 |
| 25.8 | 0.58 | CC(=O)N1CCN(c2ccc([N+](=O)[O-])c(NCc3ccccc3)c2)CC1 |
| > 20 |  | COc1ccc(C(=O)N2CCN(c3ccc([N+](=O)[O-])c(NCc4ccco4)c3)CC2)cc1OC |
| 63 | 0.38 | O=[N+]([O-])c1ccccc1NCc1ccccc1 |
| 217 | 0.07 | O=C(Nc1ccccc1)c1ccc(-c2ccc([N+](=O)[O-])c(NCc3ccccc3)c2)cc1 |
| 2.1 |  | O=C(c1ccccc1F)N1CCN(c2ccc([N+](=O)[O-])c(NCc3ccco3)c2)CC1 |
| 15.5 | 0.65 | CN(c1ccccc1)c1cc(N2CCN(C(=O)c3ccccc3)CC2)ccc1N |

| IC50 [µM] | Ratio | SMILES |
| --- | --- | --- |
| 14900 | 0 | O=C(NCc1ccccc1)c1cccc(-c2ccc([N+](=O)[O-])c(NCc3ccccc3)c2)c1 |
| 174 | 0.14 | COC(=O)c1ccc(N2CCN(C(=O)c3ccccc3)CC2)cc1NCc1ccccc1 |
| 178 | 0.05 | O=C(Nc1cc(N2CCN(C(=O)c3ccccc3)CC2)ccc1[N+](=O)[O-])c1ccccc1 |
| 631 | 0.02 | O=C(NCc1ccccc1)c1ccccc1-c1ccc([N+](=O)[O-])c(NCc2ccccc2)c1 |
| > 50 |  | CS(=O)(=O)N1CCN(c2ccc([N+](=O)[O-])c(Nc3ccccc3)c2)CC1 |
| > 100 |  | O=[N+]([O-])c1ccc(N2CCCCC2)cc1Nc1ccccc1 |
| 105 | 0.04 | CC(=O)Nc1cc([N+](=O)[O-])ccc1N1CCN(C(=O)c2ccccc2)CC1 |
| 152 | 0.03 | O=C(Nc1ccccc1)c1ccccc1-c1ccc([N+](=O)[O-])c(NCc2ccccc2)c1 |
| > 50 |  | O=[N+]([O-])c1ccc(N2CCN(S(=O)(=O)c3ccccc3)CC2)cc1Nc1ccccc1 |
| 1.4 |  | O=C(c1nnc[nH]1)N1CCN(c2ccc([N+](=O)[O-])c(NCc3ccc(Cl)cc3)c2)CC1 |
| 44 | 0.19 | CC(=O)Nc1cc(N2CCN(C(=O)c3ccccc3)CC2)ccc1[N+](=O)[O-] |
| > 20 |  | O=C(c1cccs1)N1CCN(c2ccc([N+](=O)[O-])c(-n3nc(-c4ccccc4)c4ccccc4c3=O)c2)CC1 |
| 184 | 0.02 | O=C(O)c1ccc(-c2ccc([N+](=O)[O-])c(NCc3ccccc3)c2)cc1 |
| 23 | 0.40 | O=[N+]([O-])c1ccc(N2CCOCC2)cc1Nc1ccccc1 |
| > 50 |  | O=[N+]([O-])c1ccc(N2CCN(Cc3ccccc3)CC2)cc1Nc1ccccc1 |
| 23 | 0.89 | O=C(O)C1CCN(c2ccc([N+](=O)[O-])c(NCc3ccccc3)c2)CC1 |

| SMILES | IC50 [µM] | Ratio |
| --- | --- | --- |
| CN1CCN(c2ccc([N+](=O)[O-])c(Nc3ccccc3)c2)CC1 | 23.2 | 0.42 |
